# Measured values: a melting point compilation (Tetko et al.; mined from patent text by program, amines drawn as free bases though some values may be those of a salt)
row,Structure (SMILES),melting point [°C]
1,CC#Cc1c(-c2ccc(S(C)(=O)=O)cc2)cnn(-c2ccc(F)c(F)c2)c1=O,149 to 150
2,O=C(O)c1cc([N+](=O)[O-])ccc1NCCc1ccccc1,116 to 118
3,CC(C)(C)OC(=O)NCCc1c[nH]c2ccc(Oc3ccccc3)c(Cl)c12,163 to 166
4,CC(=O)Oc1c(C)c2c(c3ccccc13)OCC2c1ccc(C(C)C)cc1 (stereo not drawn),109 to 110
5,CN(C)C(=O)c1cccnc1C(=O)c1cccc(C(F)(F)F)c1,100 to 103
6,CCc1cc(CCc2nc3ccccc3o2)c(=S)[nH]c1C,199 to 201
7,O=S(=O)(Nc1ccc(Oc2ccc3cccnc3c2)cc1)c1ccc(F)cc1,175 to 178
8,CC(NC(CCc1ccccc1)C(=O)O)C(=O)OC(Cc1ccccc1)C(=O)O (stereo not drawn),199 to 200
9,O=C1NC(=O)C(=Cc2ccc(OCCN3c4ccccc4Sc4ccccc43)cc2)S1,168 to 170
10,NNCC1(O)c2ccccc2C=Cc2ccccc21,128 to 131
11,COc1ccc(-c2cc3cc(F)c(F)cc3[nH]2)cc1NC(=S)Nc1cc(Cl)cc(Cl)c1,203 to 205
12,CCOC(=O)c1nc(CCl)n(-c2ccc(Br)cc2C(=O)c2ccccn2)n1,96 to 97
13,CCCn1c(COCC)nc2c(N)nc3ccc(OCCCCCCNC(=O)NC(C)C)cc3c21,167 to 169
14,O=c1c2c(N3CCNCC3)cc(Cl)cc2n(Cc2ccccc2)c(=O)n1Cc1ccccc1Br,94 to 97
15,COC(=O)c1ccccc1COc1ccccc1Br,73 to 74
16,N#CSc1ccc(N)c(C(=O)c2ccccn2)c1,102 to 104
17,COc1cc(-c2ncnc(C(F)(F)F)c2C)c(F)cc1Cl,144 to 146
18,CCCOc1ccccc1C(=O)Nc1ncccc1C(N)=O,181 to 184
19,CCc1noc(-c2cn(-c3ccccc3OCCc3ccccc3)cn2)n1,61
20,CC1(C)COc2cc3c(cc21)C1(CO3)CN(Cc2ccccn2)c2ccccc21 (stereo not drawn),145 to 147
21,Cc1cc(-c2nc(COc3ccc(CCCn4ccnc4)cc3)co2)sc1Br,92 to 93
22,CCN=C(N)Nc1cnn(C(C)CCC(=N)NNC(C)=O)n1 (stereo not drawn),136 to 138
23,COCN1C(C)=C(C(=O)OCOC(=O)C(C)(C)C)C(c2cccc(Cl)c2Cl)C(C(=O)OCOC(=O)C(C)(C)C)=C1C,103 to 104
24,C=CC(C)(C)C(=O)COc1ccc(-c2ccccc2)cc1,42 to 44
25,Cc1ccc2c(n1)Nc1ccccc1N(C)C2=O,192 to 194

row,Structure (SMILES),melting point [°C]
1,c1ccc(CN2CC3Cc4ccccc4OC3C2)cc1 (stereo not drawn),68 to 70
2,Fc1ccc(Cn2c(NC3CCN(CCOc4nccs4)CC3)nc3ccccc32)cc1,156
3,Nc1cccc(C=C2c3ccccc3CCc3ccccc32)c1,204
4,COc1cc(OC)c(N2CCCC2)cc1/C=C/C(=O)c1ccc(S(=O)(=O)NCc2ccccn2)cc1,112 to 116
5,COc1ccc2c(O)cc(=O)oc2c1C,195 to 197
6,ClCCCOc1ccc(SCCCCl)cc1,112
7,CCOCc1nc2c(N)nc3ccccc3c2n1CCCCS(=O)(=O)NCc1ccc(OC)cc1,101
8,CCCCCCCCC(=O)OCC(O)COC(=O)CCCCCCCC,30 to 31
9,Nc1c(OCCCBr)cccc1[N+](=O)[O-],88 to 89
10,FC(F)(F)c1ccc(COc2ccnc(CCl)c2)cc1,133 to 135
11,CC(C)(C)C(=O)OC1CCC2(C)C(=CC(O)C3C2CCC2(C)C(=O)CC(OC(=O)C(C)(C)C)C32)C1 (stereo not drawn),195 to 197
12,Cc1cc(-c2cccc(C(F)(F)F)c2)c2nc(OC(F)F)cnc2c1,103 to 104
13,O=C(Nc1ccc2cc(CN3CCCC3)cnc2c1)c1ccc(-c2ccc(Cl)cc2)cc1,217 to 220
14,COc1cc(C(=O)NS(=O)(=O)c2ccccc2C)ccc1CN1CCOc2ccc(NC(=O)CC3CCCC3)cc21,207 to 208
15,CC1(N)CN(c2c(F)c(N)c3c(=O)c(C(=O)O)cn(C4CC4)c3c2F)C1,243 to 247
16,CC(=O)N1C(C)(C)CC(Oc2nc(Cl)nc(N3C(C)(C)CCCC3(C)C)n2)CC1(C)C,114 to 116
17,CCCCCc1ccc(-c2ccc(-c3cc(F)c(C(F)(F)Oc4cc(F)c(C(F)(F)F)c(F)c4)c(F)c3)c(F)c2)cc1,96
18,CCOC(=O)c1cn([C@@H]2C[C@@H]2F)c2cc(F)ccc2c1=O,227 to 230
19,O=C(OCc1cc(-c2ccccc2)c(=O)n2c1-c1sccc1CN2)N1CCOCC1,207 to 210
20,N#Cc1nc2cc3c(cc2[nH]1)OC(F)(Cl)C(F)(Cl)O3 (stereo not drawn),> 230
21,CC(=O)c1cccc(C)c1NC(=O)CCl,88 to 89
22,Cc1nc(C)c(Cl)c(NCc2cccc(Oc3ccc4ncc([N+](=O)[O-])n4n3)c2)n1,222 to 223
23,CCCCCCCC(=O)c1[nH]c(=O)[nH]c1C,220 to 221
24,CCCCOC(=O)c1c(-c2cnccn2)ssc1=S,127
25,C#CCn1c(=O)ccc2cc(F)c(-n3c(=O)cc(C(F)(F)F)n(C)c3=O)cc21,236 to 238

row,Structure (SMILES),melting point [°C]
1,C#Cc1ccc2c(c1)C(c1ccccc1F)=NC(C)c1c(C(=O)OCC)ncn1-2 (stereo not drawn),212 to 214
2,Cc1cc(C)c(N[C@@H](C)C(=O)O)c(C)c1,318 to 320
3,Cc1cc(N(C)C)c2c(N)c(C(N)=O)sc2n1,167 to 170
4,O=C1CCC(N2C(=O)c3cccc(CNC(=O)OCc4ccccc4)c3C2=O)C(=O)N1 (stereo not drawn),166 to 168
5,Cc1ccc2c(c1)C(c1ccc(C(C)C)cc1)C(C)(C)O2 (stereo not drawn),65 to 66
6,COc1cc2c(cc1Nc1ncc(Cl)c(Nc3ccc(N4CCOCC4)cc3OC)n1)CCN(CC(=O)OC(C)C)CC2,70 to 80
7,Cc1cccc(Cl)c1NC(=O)N=C1NCCN1,169 to 171
8,O=Cc1cncc(Br)c1,95
9,CSC1C(=O)Nc2ccc(C3=NNC(=O)SC3C)cc21 (stereo not drawn),159
10,O=C(O)c1ccc2c(c1)S(=O)(=O)NCN2C1CC1,263 to 265
11,O=C(NCc1ccc(Cl)cc1)c1cn(CCCN2CCCCC2)c2ccc(C#CCO)cc2c1=O,160 to 163
12,O=C([C@@H](Cc1ccc(Cl)cc1)NC1CCOCC1)N1CCC(Cn2cncn2)(C2CCCCC2)CC1,75
13,O=CNC(Cc1ccccc1)C1CC(Cc2ccccc2)=NO1 (stereo not drawn),112 to 113
14,Cc1noc2cc(N3CCOCC3)ccc12,138 to 140
15,Oc1c(Br)cc(-c2c3ccccc3c(Cl)c3sc4ccccc4c23)cc1Br,222 to 223
16,N#Cc1sc2cc([N+](=O)[O-])ccc2c1Cl,204 to 205
17,CCOC(=O)Nc1ccc(C2CCN(C(=O)OCC)CC2)cc1,105 to 107
18,Cc1cc(OCc2ccccc2)cc(C)c1NC(=O)CN1CCN2C(C1)C(=O)NC2(C)C (stereo not drawn),224
19,Cc1ccc(-c2c(-c3ccc(S(C)(=O)=O)cc3)cnn(-c3ccc(F)cc3)c2=O)cc1F,245 to 248
20,NS(=O)(=O)c1ccc(-n2nc(C(F)F)cc2-c2cnccn2)cc1,191 to 194
21,CC1(C)CC(=C(c2ccc(O)cc2)c2ccc(-c3ccoc3)cc2)CC(C)(C)C1,128 to 129
22,CN(C)CCN(CCN(C)C)c1ccc(-c2nc3ccccc3[nH]2)cc1,190 to 191
23,N#CC1=Cc2cc(Cl)ccc2OC1,124 to 126
24,C=CCOc1cc(Br)ccc1C(=O)OC,62
25,CCCCc1ccc(-c2[nH]nc3c2C(=O)c2c(NC(C)=O)cccc2-3)cc1,259

row,Structure (SMILES),melting point [°C]
1,NC1=C2C=NN=C2N(c2ccccc2)CN1c1ccccc1,244 to 246
2,COc1cc(OCCOc2ccccc2)cc2nc(-c3cc(C)nc(C)c3)[nH]c(=O)c12,223 to 224
3,O=c1c2cc(Br)ccc2nc(CSc2ncnc3[nH]cnc23)n1-c1ccccc1Cl,212 to 242
4,CC1(C)OC[C@H](COc2nc(S(C)(=O)=O)nc3[nH]nc(-c4ccccc4Cl)c23)O1,161 to 162
5,Cc1cc(OC(F)F)ccc1NC(=O)c1cccc(N)c1C(=O)NC(C)C,148 to 149
6,CCCCCCC(C)(C)c1cc(O)c(C2=C(CO)CCC(C)C2)c(O)c1 (stereo not drawn),155 to 156
7,Nc1nc(N)c(-c2ccc(Cl)cc2Cl)c(CF)n1,210 to 211
8,COc1cc(C(C)C)c(NC(=O)CN2CCN(CCSc3nc4ccccc4o3)CC2)c(C(C)C)c1,115 to 117
9,O=C(NNS(=O)(=O)c1ccccc1)c1ccc(-c2ccccc2)cc1,216 to 219
10,CC(C)CCCC(C)C1CCC2C3CC(Br)=C4CC(O)CCC4(C)C3CCC12C (stereo not drawn),155
11,CCO/N=C(/C(=O)OCC)c1ccc(OCCOc2ccc3ccccc3c2)s1,102 to 104
12,COc1ccccc1C1(O)C(O)CC(c2ccccc2)(c2ccccc2)C2CN(C(=O)Cc3c[nH]c4ccc(O)cc34)CC21 (mixture of isomers),230 to 235
13,CSc1nc2cc(Cl)c(S(N)(=O)=O)cc2[nH]1,253 to 254
14,CCOC(=O)CC[C@H](NC(=O)c1csc(CCCc2coc3nc(N)nc(N)c23)c1)C(=O)OCC,79 to 80
15,Cc1ccccc1-c1ccc(C(=O)N2Cc3ccc(C(=O)NCc4cccnc4)n3Cc3ccccc32)cc1,176 to 177
16,COc1ccc(C2CC(=O)N(c3ccnc(NC(=O)NCc4ccccn4)c3)C2)cc1 (stereo not drawn),159 to 161
17,CC(C)OC(=O)c1cc(N)c(F)c(Cl)n1,191 to 192
18,COC1OCOc2cc3c4c(cccc4c21)C(=O)N(O)C3=O (stereo not drawn),249 to 251
19,Cc1ccc(-c2nc(CCCC#N)c(C(F)(F)F)o2)cc1,41 to 42.5
20,O=C(Nc1ccc(F)cc1F)c1cccc(Oc2cccc(C(F)(F)F)c2)n1,110 to 112
21,COc1c(C)c(C)c2c(c1C)C(CO)C(C)(C)O2 (stereo not drawn),79 to 81
22,CCOC(=O)C=Cc1cc(-c2csc(-c3ccc(OCC)c(OCC)c3)n2)cc(C(=O)OCOC)c1OCOC,94 to 96
23,COc1cc(OCCCN2CCC(c3n[nH]c4cc(F)ccc34)CC2)ccc1C(C)=O,202 to 204
